Measurements as given in patent US8637537B2, “Serine/threonine kinase inhibitors” (Genentech, Inc., priority 2011, dated 2014).

Biological target: T1, human recombinant GST-PAK1-KD protein (Homo sapiens, UniProt Q13153)
T1 construct: residues #249-545 of human PAK1, UniProtKP/Swiss Q13153; His6 (N); made in house; host or cells: Sf9 insect cells, pAcGP67 baculovirus expression vector
Experiment: GST-PAK1-KD (kinase domain) biochemical assay, microfluidic mobility shift
Settings: not given
Protocol: Activity of human recombinant GST-PAK1-KD protein was assessed in vitro assay by observing the phosphorylation of a fluorogenic peptide substrate.
The peptide substrate is a consensus sequence based on various PAK1 substrates reported in the scientific literature. […] Incubations were carried out at 22° C. in MatriCal MP101 384-well Metriplates™. […] Following the 30-minute incubation, the assay mixtures were quenched by the addition of 3 μL of 250 mM EDTA, and the substrate and phosphorylated product were separated by capillary electrophoresis and detected using LabChip® Caliper 3000 (Caliper Life Sciences).

T1 sequence (Q13153 249-545): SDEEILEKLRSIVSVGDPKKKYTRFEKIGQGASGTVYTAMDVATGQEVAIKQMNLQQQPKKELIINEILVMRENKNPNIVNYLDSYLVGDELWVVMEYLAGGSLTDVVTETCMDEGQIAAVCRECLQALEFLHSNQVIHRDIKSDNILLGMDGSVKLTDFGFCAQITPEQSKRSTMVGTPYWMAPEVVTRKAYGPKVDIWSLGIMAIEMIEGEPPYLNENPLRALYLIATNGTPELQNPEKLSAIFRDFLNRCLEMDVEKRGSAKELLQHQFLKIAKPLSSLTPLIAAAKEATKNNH

Compound | Ki [µM]
Fc1c(CNc2nccc(Nc3cc(C4CC4)[nH]n3)n2)ccc2[nH]cnc12 [I-29, N^4-(5-Cyclopropyl-1H-pyrazol-3-yl)-N^2-[(4-fluoro-1H-benzimidazol-5-yl)methyl]pyrimidine-2,4-diamine] | 0.25 to 1

Same assay, conditions: Ki, Table I, PAK1 Ki class

Compound | Ki [µM]
C[C@@H](Nc1nccc(Nc2cc(C3CC3)[nH]n2)n1)c1ccc2[nH]ccc2c1 [I-60, (R)—N^2-(1-(1H-indol-5-yl)ethyl)-N^4-(5-cyclopropyl-1H-pyrazol-3-yl)pyrimidine-2,4-diamine] | > 1

Same assay, conditions: Table I, PAK1 Ki class; read-out: Ki

Compound | Ki [µM]
C[C@H](Nc1nccc(Nc2cc(C3CC3)[nH]n2)n1)c1ccc2[nH]ccc2c1Cl [I-22, (S)—N^2-(1-(4-chloro-1H-indol-5-yl)ethyl)-N^4-(5-cyclopropyl-1H-pyrazol-3-yl)pyrimidine-2,4-diamine] | 0.05 to 0.25
Cc1c[nH]c2ccc(CNc3nccc(Nc4cc(C5CC5)[nH]n4)n3)cc12 [I-25, N^4-(5-cyclopropyl-1H-pyrazol-3-yl)-N^2-((3-methyl-1H-indol-5-yl)methyl)pyrimidine-2,4-diamine] | 0.05 to 0.25
Cc1cc(CNc2nccc(Nc3cc(C4CC4)[nH]n3)n2)cc2nc[nH]c12 [I-26, N^4-(5-Cyclopropyl-1H-pyrazol-3-yl)-N^2-((7-methyl-1H-benzo[d]imidazol-5-yl)methyl)-pyrimidine-2,4-diamine] | 0.05 to 0.25
Fc1cc2[nH]cnc2cc1CNc1nccc(Nc2cc(C3CC3)[nH]n2)n1 [I-28, N^4-(5-Cyclopropyl-1H-pyrazol-3-yl)-N^2-((6-fluoro-1H-benzo[d]imidazol-5-yl)methyl)pyrimidine-2,4-diamine] | 0.05 to 0.25
Cc1cc2[nH]cnc2cc1CNc1nccc(Nc2cc(C3CC3)[nH]n2)n1 [I-30, N^4-(5-Cyclopropyl-1H-pyrazol-3-yl)-N^2-[(6-methyl-1H-benzimidazol-5-yl)methyl]pyrimidine-2,4-diamine] | 0.25 to 1
Cc1cnc(N[C@@H](C)c2ccc3[nH]ccc3c2)nc1Nc1cc(C2CC2)[nH]n1 [I-31, (S)—N^2-(1-(1H-indol-5-yl)ethyl)-N^4-(5-cyclopropyl-1H-pyrazol-3-yl)-5-methylpyrimidine-2,4-diamine] | 0.25 to 1
Cc1cnc(NCc2ccc3[nH]cnc3c2)nc1Nc1cc(C2CC2)[nH]n1 [I-32, N^2-(1H-Benzoimidazol-5-ylmethyl)-N^4-(5-cyclopropyl-1H-pyrazol-3-yl)-5-methyl-pyrimidine-2,4-diamine] | 0.25 to 1
Cn1ccc2cc(CNc3nccc(Nc4cc(C5CC5)[nH]n4)n3)ccc21 [I-33, N^4-(5-Cyclopropyl-1H-pyrazol-3-yl)-N^2-((1-methyl-1H-indol-5-yl)methyl)pyrimidine-2,4-diamine] | 0.25 to 1
C[C@H](Nc1nccc(Nc2cc(C3CC3)[nH]n2)n1)c1ccc2cc[nH]c2c1 [I-34, (S)—N^2-(1-(1H-indol-6-yl)ethyl)-N^4-(5-cyclopropyl-1H-pyrazol-3-yl)pyrimidine-2,4-diamine] | 0.25 to 1
c1cc(Nc2cc(C3CC3)[nH]n2)nc(NCc2ccc3cc[nH]c3c2)n1 [I-35, N^2-((1H-Indol-6-yl)methyl)-N^4-(5-cyclopropyl-1H-pyrazol-3-yl)pyrimidine-2,4-diamine] | > 1
c1cc(CNc2nccc(Nc3cc(C4CCC4)[nH]n3)n2)c2cc[nH]c2c1 [I-36, N^2-((1H-indol-4-yl)methyl)-N^4-(5-cyclobutyl-1H-pyrazol-3-yl)pyrimidine-2,4-diamine] | < 0.05
O=C(c1c[nH]c2cccc(CNc3nccc(Nc4cc(C5CC5)[nH]n4)n3)c12)C(F)(F)F [I-37, 1-(4-((4-(5-cyclopropyl-1H-pyrazol-3-ylamino)pyrimidin-2-ylamino)methyl)-1H-indol-3-yl)-2,2,2-trifluoroethanone] | < 0.05
c1cc(CNc2nccc(Nc3cc(C4CC4)[nH]n3)n2)c2cc[nH]c2c1 [I-38, N^2-((1H-Indol-4-yl)methyl)-N^4-(5-cyclopropyl-1H-pyrazol-3-yl)pyrimidine-2,4-diamine] | 0.05 to 0.25
CN(Cc1cccc2[nH]ccc12)c1nccc(Nc2cc(C3CC3)[nH]n2)n1 [I-40, N^2-((1H-Indol-4-yl)methyl)-N^4-(5-cyclopropyl-1H-pyrazol-3-yl)-N^2-methylpyrimidine-2,4-diamine] | 0.05 to 0.25
FC(F)(F)c1cc(Nc2cc(C3CC3)[nH]n2)nc(NCc2cccc3[nH]ccc23)n1 [I-41, N^2-((1H-indol-4-yl)methyl)-N^4-(5-cyclopropyl-1H-pyrazol-3-yl)-6-(trifluoromethyl)pyrimidine-2,4-diamine] | 0.25 to 1
c1cc(CNc2nccc(Nc3cc(OCC4CC4)[nH]n3)n2)c2cc[nH]c2c1 [I-42, N^2-((1H-indol-4-yl)methyl)-N^4(5-(cyclopropylmethoxy)-1H-pyrazol-3-yl)pyrimidine-2,4-diamine] | 0.25 to 1
CC[C@@H](Nc1nccc(Nc2cc(C3CC3)[nH]n2)n1)c1ccc2[nH]cnc2c1 [I-43, N^2-[(1R)-1-(1H-benzimidazol-5-yl)propyl]-N^4-(5-cyclopropyl-1H-pyrazol-3-yl)pyrimidine-2,4-diamine] | 0.25 to 1

Compound | Ki [µM]
C[C@H](Nc1nccc(Nc2cc(C3CCCO3)[nH]n2)n1)c1ccc2[nH]cnc2c1 (stereo partly drawn) [I-44, N^2—((S)-1-(1H-benzo[d]imidazol-5-yl)ethyl)-N^4-(5-(tetrahydrofuran-2-yl)-1H-pyrazol-3-yl)pyrimidine-2,4-diamine] | 0.05 to 0.25
C[C@H](Nc1ncc(Cl)c(Nc2cc(C3CC3)[nH]n2)n1)c1ccc2[nH]cnc2c1 [I-46, (S)—N^2-(1-(1H-benzo[d]imidazol-5-yl)ethyl)-5-chloro-N^4-(5-cyclopropyl-1H-pyrazol-3-yl)pyrimidine-2,4-diamine] | 0.05 to 0.25
Fc1ccc(CNc2nccc(Nc3cc(C4CC4)[nH]n3)n2)c2cc[nH]c12 [I-47, N^4-(5-cyclopropyl-1H-pyrazol-3-yl)-N^2-((7-fluoro-1H-indol-4-yl)methyl)pyrimidine-2,4-diamine] | 0.25 to 1
c1cc(CNc2nccc(Nc3cc(CC4CC4)[nH]n3)n2)c2cc[nH]c2c1 [I-48, N^2-((1H-indol-4-yl)methyl)-N^4-(5-(cyclopropylmethyl)-1H-pyrazol-3-yl)pyrimidine-2,4-diamine] | 0.05 to 0.25
Clc1cnc(NCc2cccc3[nH]ccc23)nc1Nc1cc(C2CC2)[nH]n1 [I-49, N^2-((1H-indol-4-yl)methyl)-5-chloro-N^4-(5-cyclopropyl-1H-pyrazol-3-yl)pyrimidine-2,4-diamine] | 0.25 to 1
c1cc(CNc2nccc(Nc3cc(C4CCCC4)[nH]n3)n2)c2cc[nH]c2c1 [I-50, N^2-((1H-indol-4-yl)methyl)-N^4-(5-cyclopentyl-1H-pyrazol-3-yl)pyrimidine-2,4-diamine] | 0.05 to 0.25
c1cc(CNc2nccc(Nc3cc(C4CCOC4)[nH]n3)n2)c2cc[nH]c2c1 (stereo not drawn) [I-51, N^2-((1H-indol-4-yl)methyl)-N^4-(5-(tetrahydrofuran-3-yl)-1H-pyrazol-3-yl)pyrimidine-2,4-diamine] | 0.05 to 0.25
Cc1ccc(CNc2nccc(Nc3cc(C4CC4)[nH]n3)n2)c2cc[nH]c12 [I-52, N^4-(5-Cyclopropyl-1H-pyrazol-3-yl)-N^2-((7-methyl-1H-indol-4-yl)methyl)pyrimidine-2,4-diamine] | 0.05 to 0.25
Fc1cc(CNc2nccc(Nc3cc(C4CC4)[nH]n3)n2)c2cc[nH]c2c1 [I-53, N^4-(5-cyclopropyl-1H-pyrazol-3-yl)-N^2-((6-fluoro-1H-indol-4-yl)methyl)pyrimidine-2,4-diamine] | < 0.05
Cc1cc(Nc2cc(C3CC3)[nH]n2)nc(NCc2cccc3[nH]ccc23)n1 [I-54, N^2-((1H-indol-4-yl)methyl)-N^4-(5-cyclopropyl-1H-pyrazol-3-yl)-6-methylpyrimidine-2,4-diamine] | 0.05 to 0.25
C[C@H](c1ccc2[nH]cnc2c1)N(C)c1nccc(Nc2cc(C3CC3)[nH]n2)n1 [I-55, (R)—N^2-(1-(1H-benzo[d]imidazol-5-yl)ethyl)-N^4-(5-cyclopropyl-1H-pyrazol-3-yl)-N^2-methylpyrimidine-2,4-diamine] | 0.05 to 0.25
Cc1cc(Nc2ccnc(NCc3cccc4[nH]ccc34)n2)n[nH]1 [I-56, N^2-((1H-indol-4-yl)methyl)-N^4-(5-methyl-1H-pyrazol-3-yl)pyrimidine-2,4-diamine] | > 1
CC(C)c1cc(Nc2ccnc(NCc3cccc4[nH]ccc34)n2)n[nH]1 [I-58, N^2-((1H-indol-4-yl)methyl)-N^4-(5-isopropyl-1H-pyrazol-3-yl)pyrimidine-2,4-diamine] | 0.05 to 0.25
C[C@H](Nc1nccc(Nc2cc([C@@H]3CC3(F)F)[nH]n2)n1)c1ccc2[nH]cnc2c1 [I-61, N^2—((S)-1-(1H-benzo[d]imidazol-5-yl)ethyl)-N^4-(5-((S)-2,2-difluorocyclopropyl)-1H-pyrazol-3-yl)pyrimidine-2,4-diamine] | 0.05 to 0.25
OCCN(Cc1ccc2[nH]cnc2c1)c1nccc(Nc2cc(C3CC3)[nH]n2)n1 [I-63, 2-(((1H-benzo[d]imidazol-5-yl)methyl)(4-(5-cyclopropyl-1H-pyrazol-3-ylamino)pyrimidin-2-yl)amino)ethanol] | 0.05 to 0.25
C[C@H](Nc1nccc(Nc2cc([C@@H]3C[C@@H]3F)[nH]n2)n1)c1ccc2[nH]ccc2c1 [I-64, N^2—((S)-1-(1H-indol-5-yl)ethyl)-N^4-(5-((1S,2S)-2-fluorocyclopropyl)-1H-pyrazol-3-yl)pyrimidine-2,4-diamine] | 0.05 to 0.25
C[C@H](Nc1nccc(Nc2cc([C@H]3C[C@H]3F)[nH]n2)n1)c1ccc2[nH]ccc2c1 [I-65, N^2—((S)-1-(1H-indol-5-yl)ethyl)-N^4-(5-((1R,2R)-2-fluorocyclopropyl)-1H-pyrazol-3-yl)pyrimidine-2,4-diamine] | < 0.05
